# Reference: patent US20130071854A1, “METHODS FOR THE IDENTIFICATION AND CHARACTERIZATION OF HDAC INTERACTING COMPOUNDS” (priority 2009, published 2013)
# Like-named read-outs stand apart in the source and are kept apart here.
# How the values were obtained:
# ISOC1 = molecular target: T1, ISOC1 (Homo sapiens, UniProt Q96CN7); assay: Competition binding assay in cell lysate, affinity matrix, MS; details: ISOC1, read-out: IC50
# T1 construct: endogenous in cells
# T1 sequence (Q96CN7 1-298): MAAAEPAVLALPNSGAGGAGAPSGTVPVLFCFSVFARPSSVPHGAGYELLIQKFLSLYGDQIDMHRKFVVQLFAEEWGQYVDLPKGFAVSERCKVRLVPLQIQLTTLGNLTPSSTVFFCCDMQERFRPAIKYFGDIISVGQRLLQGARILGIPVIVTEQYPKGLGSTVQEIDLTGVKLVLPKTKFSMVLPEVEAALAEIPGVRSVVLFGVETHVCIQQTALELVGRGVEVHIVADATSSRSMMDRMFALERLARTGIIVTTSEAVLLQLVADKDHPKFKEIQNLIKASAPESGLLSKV
# GATAD2B = assay: Competition binding assay in cell lysate, affinity matrix, MS (Mi-2/NuRD interactor)
# [1] = tested on: histone acetylation, K562 cells; assay: Mapping of histone acetylation by LC-MS/MS of K562 cells treated with HDACi; format: cell-based, human; details: K562 cells treated 6 hours, isobaric tagging and MS/MS
# RBBP7 = assay: Competition binding assay in cell lysate, affinity matrix, MS (Sin3/Mi2-NuRD interactor)
# NuRD complex = assay: Chemoproteomic binding profiling, K562 cell extract, SAHA/ITF2357 probe matrix (Kd app); design: species or system human
# PPP4C = molecular target: T2, PPP4C (Homo sapiens, UniProt P60510); assay: Competition binding assay in cell lysate, affinity matrix, MS; details: PPP4C, read-out: IC50
# T2 construct: endogenous in cells
# T2 sequence (P60510 1-307): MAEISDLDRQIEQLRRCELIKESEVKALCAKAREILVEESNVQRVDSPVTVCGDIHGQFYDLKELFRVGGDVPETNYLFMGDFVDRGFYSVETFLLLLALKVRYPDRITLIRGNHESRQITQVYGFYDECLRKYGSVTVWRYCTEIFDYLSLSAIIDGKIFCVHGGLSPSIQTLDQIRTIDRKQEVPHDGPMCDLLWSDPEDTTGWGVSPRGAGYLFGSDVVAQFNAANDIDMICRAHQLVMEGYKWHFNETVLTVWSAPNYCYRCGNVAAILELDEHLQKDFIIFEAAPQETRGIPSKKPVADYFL
# ALDH2 = molecular target: T3, ALDH2 (Homo sapiens, UniProt P05091); assay: as above; details: ALDH2, read-out: IC50
# T3 construct: endogenous in cells
# T3 sequence (P05091 18-517): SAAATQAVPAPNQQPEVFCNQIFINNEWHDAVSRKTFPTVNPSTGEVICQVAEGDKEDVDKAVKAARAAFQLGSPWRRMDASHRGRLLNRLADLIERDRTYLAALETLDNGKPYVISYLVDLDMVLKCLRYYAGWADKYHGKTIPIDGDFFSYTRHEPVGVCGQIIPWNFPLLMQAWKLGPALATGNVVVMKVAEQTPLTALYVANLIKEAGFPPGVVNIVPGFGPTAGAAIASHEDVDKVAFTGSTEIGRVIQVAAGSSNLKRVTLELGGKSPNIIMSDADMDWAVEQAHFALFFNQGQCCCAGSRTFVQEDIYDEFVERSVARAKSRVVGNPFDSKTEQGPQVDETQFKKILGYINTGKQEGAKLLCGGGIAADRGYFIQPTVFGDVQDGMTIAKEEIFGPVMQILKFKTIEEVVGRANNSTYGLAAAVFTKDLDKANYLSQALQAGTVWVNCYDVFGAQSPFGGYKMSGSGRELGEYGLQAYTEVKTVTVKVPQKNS
# GATAD2A = assay: Competition binding assay in cell lysate, affinity matrix, MS (Mi-2/NuRD interactor)
# ISOC2 = molecular target: T4, ISOC2 (Homo sapiens, UniProt Q96AB3); assay: Competition binding assay in cell lysate, affinity matrix, MS; details: ISOC2; K-562 cell lysate
# T4 construct: endogenous in cells
# T4 sequence (Q96AB3 whole entry): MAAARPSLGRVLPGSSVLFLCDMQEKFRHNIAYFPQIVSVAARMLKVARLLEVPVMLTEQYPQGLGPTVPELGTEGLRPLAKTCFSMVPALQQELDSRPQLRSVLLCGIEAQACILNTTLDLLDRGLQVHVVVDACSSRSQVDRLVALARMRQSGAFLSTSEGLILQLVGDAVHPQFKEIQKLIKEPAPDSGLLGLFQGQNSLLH
# TBL1X = details: K-562 cell lysate
# MTA2 = assay: Competition binding assay in cell lysate, affinity matrix, MS (Mi-2/NuRD interactor)
# WDR5 = molecular target: T5, WDR5 (Homo sapiens, UniProt P61964); assay: Competition binding assay in cell lysate, affinity matrix, MS; details: WDR5; K-562 cell lysate
# T5 construct: endogenous in cells
# DNTTIP1 = assay: as above; details: K-562 cell lysate
# BZW2 = molecular target: T6, BZW2 (Homo sapiens, UniProt Q9Y6E2); assay: as above; details: BZW2, read-out: IC50
# T6 construct: endogenous in cells
# T6 sequence (Q9Y6E2 1-419): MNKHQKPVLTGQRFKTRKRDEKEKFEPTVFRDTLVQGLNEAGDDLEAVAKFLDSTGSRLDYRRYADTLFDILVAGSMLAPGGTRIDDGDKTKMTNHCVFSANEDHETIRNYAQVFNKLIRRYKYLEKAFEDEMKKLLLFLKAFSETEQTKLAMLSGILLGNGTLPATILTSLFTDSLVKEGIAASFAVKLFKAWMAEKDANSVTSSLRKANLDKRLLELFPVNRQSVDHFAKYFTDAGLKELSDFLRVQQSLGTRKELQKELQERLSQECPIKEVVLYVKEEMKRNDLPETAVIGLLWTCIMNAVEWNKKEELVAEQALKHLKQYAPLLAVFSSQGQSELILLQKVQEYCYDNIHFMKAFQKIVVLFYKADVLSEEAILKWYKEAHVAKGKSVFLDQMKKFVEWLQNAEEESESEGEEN
# CoREST complex = assay: Chemoproteomic binding profiling, K562 cell extract, SAHA/ITF2357 probe matrix (Kd app); design: species or system human; details: read-out: Kd^app GSE1
# GPS2 = details: Molt-4 cell lysate
# MTA1 = assay: Competition binding assay in cell lysate, affinity matrix, MS (Mi-2/NuRD interactor); design: species or system human; details: Molt-4 cell lysate
# MBD3 = assay: as above
# MTA3 = assay: as above; details: K-562 cell lysate
# HSPD1 = molecular target: T7, HSPD1 (Homo sapiens, UniProt P10809); assay: Competition binding assay in cell lysate, affinity matrix, MS; details: HSPD1, read-out: IC50
# T7 construct: endogenous in cells
# T7 sequence (P10809 27-573): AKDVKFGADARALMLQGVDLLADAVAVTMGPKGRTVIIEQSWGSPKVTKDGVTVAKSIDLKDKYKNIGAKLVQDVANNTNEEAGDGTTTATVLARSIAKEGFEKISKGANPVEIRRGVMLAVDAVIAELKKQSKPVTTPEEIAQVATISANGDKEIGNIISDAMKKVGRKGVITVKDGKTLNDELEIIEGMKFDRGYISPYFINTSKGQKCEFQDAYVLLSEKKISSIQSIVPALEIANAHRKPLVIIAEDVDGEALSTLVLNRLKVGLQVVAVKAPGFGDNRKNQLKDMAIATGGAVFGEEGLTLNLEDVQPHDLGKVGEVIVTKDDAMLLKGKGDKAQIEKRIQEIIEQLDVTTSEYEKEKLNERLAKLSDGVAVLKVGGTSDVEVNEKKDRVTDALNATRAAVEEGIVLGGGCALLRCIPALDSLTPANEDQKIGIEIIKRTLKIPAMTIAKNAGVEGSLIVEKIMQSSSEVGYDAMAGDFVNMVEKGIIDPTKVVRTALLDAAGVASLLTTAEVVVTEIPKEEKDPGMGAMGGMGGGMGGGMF
# Sin3 complex = assay: Chemoproteomic binding profiling, K562 cell extract, SAHA/ITF2357 probe matrix (Kd app); design: species or system human
structure (smiles),measurement,setting,value
CC(/C=C/C(=O)NO)=C\[C@@H](C)C(=O)c1ccc(N(C)C)cc1 [Trichostatin A],IC50,ISOC1; K-562 cell lysate,3000 nM
same,IC50,ISOC1; Molt-4 cell lysate,3000 nM
same,IC50,GATAD2B; K-562 cell lysate,60 nM
same,IC50,GATAD2B; Molt-4 cell lysate,60 nM
same,abundance of acetylated histone peptides (in words),[1],pronounced abundance of hyperacetylated histone peptides
same,IC50,RBBP7; K-562 cell lysate,180 nM
same,IC50,RBBP7; Molt-4 cell lysate,120 nM
same,Kd,NuRD complex; read-out: Kd^app CHD4,60 nM
same,Kd,NuRD complex; read-out: Kd^app GATAD2B,30 nM
same,Kd,NuRD complex; read-out: Kd^app MTA1,120 nM
same,IC50,PPP4C; K-562 cell lysate,3000 nM
same,IC50,PPP4C; Molt-4 cell lysate,3000 nM
same,IC50,ALDH2; K-562 cell lysate,3000 nM
same,IC50,ALDH2; Molt-4 cell lysate,3000 nM
same,IC50,GATAD2A; K-562 cell lysate,60 nM
same,IC50,GATAD2A; Molt-4 cell lysate,40 nM
same,IC50,ISOC2,3000 nM
same,IC50,TBL1X,50 nM
same,IC50,MTA2; K-562 cell lysate,70 nM
same,IC50,MTA2; Molt-4 cell lysate,60 nM
same,IC50,WDR5,420 nM
same,IC50,DNTTIP1,50 nM
same,IC50,BZW2; K-562 cell lysate,2790 nM
same,IC50,BZW2; Molt-4 cell lysate,2450 nM
same,Kd,CoREST complex,4 nM
same,IC50,GPS2,100 nM
same,IC50,MTA1,60 nM
same,IC50,MBD3; K-562 cell lysate,50 nM
same,IC50,MBD3; Molt-4 cell lysate,40 nM
same,IC50,MTA3,60 nM
same,IC50,HSPD1; K-562 cell lysate,3000 nM
same,IC50,HSPD1; Molt-4 cell lysate,3000 nM
same,IC50,TBL1XR1; K-562 cell lysate,70 nM
same,IC50,TBL1XR1; Molt-4 cell lysate,70 nM
same,Kd,"Sin3 complex; protein SAP30, read-out: Kd^app SAP30",30 nM
same,Kd,"Sin3 complex; protein SIN3A, read-out: Kd^app SIN3A",30 nM
same,Kd,"Sin3 complex; protein SIN3B, read-out: Kd^app SIN3B",30 nM
